Experimental data as given in article PMC9521027 (ACS Omega, 2022).
Changes are numbered by the printed parent chain.

Experiments:
Type in all cases: cell-based
[1] = biological target: T1, URAT1 WT (Homo sapiens, UniProt Q96S37); assay: Competitive inhibition test of unlabeled uric acid on 14C-uric acid uptake
T1 sequence (Q96S37 1-553): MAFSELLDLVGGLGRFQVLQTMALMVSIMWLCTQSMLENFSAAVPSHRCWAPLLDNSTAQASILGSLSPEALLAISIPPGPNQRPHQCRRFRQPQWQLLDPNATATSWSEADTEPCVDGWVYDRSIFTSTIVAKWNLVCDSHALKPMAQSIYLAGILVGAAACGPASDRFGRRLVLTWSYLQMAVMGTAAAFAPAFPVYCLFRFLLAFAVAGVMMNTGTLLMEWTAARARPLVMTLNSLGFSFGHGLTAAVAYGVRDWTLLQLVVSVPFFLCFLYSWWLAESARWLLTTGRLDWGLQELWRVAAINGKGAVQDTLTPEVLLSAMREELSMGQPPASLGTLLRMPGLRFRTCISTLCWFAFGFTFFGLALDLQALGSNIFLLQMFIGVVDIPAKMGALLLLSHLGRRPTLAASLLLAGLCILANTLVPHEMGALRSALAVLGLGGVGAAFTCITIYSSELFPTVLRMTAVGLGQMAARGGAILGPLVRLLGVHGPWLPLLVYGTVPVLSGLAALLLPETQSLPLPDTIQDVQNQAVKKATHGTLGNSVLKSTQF

[2] = biological target: T2, URAT1 K393H mutant (Homo sapiens, UniProt Q96S37, K393H); assay: 14C-uric acid uptake assay in transfected HEK293 cells; conditions: K393H, HEK293 cells
T2 sequence (Q96S37 1-553 K393H): T1 sequence (Q96S37 1-553) with K393H

[3] = biological target: T3, URAT1 K393A mutant (Homo sapiens, UniProt Q96S37, K393A); assay: as above; conditions: K393A, HEK293 cells
T3 sequence (Q96S37 1-553 K393A): T1 sequence (Q96S37 1-553) with K393A

[4] = biological target: T4, URAT1 K393R mutant (Homo sapiens, UniProt Q96S37, K393R); assay: Competitive inhibition test of unlabeled uric acid on 14C-uric acid uptake
T4 sequence (Q96S37 1-553 K393R): T1 sequence (Q96S37 1-553) with K393R

IC50 [1]: 115 ± 6.36 µM
14C-uric acid transport capacity compared with WT [2]: slightly reduced
14C-urate transport capacity lost compared with WT [3]: 70–80%
IC50 [4]: 113 ± 10.1 µM
Structure (SMILES): O=c1[nH]c(=O)c2[nH]c(=O)[nH]c2[nH]1 [uric acid]
